Data: ChEMBL document CHEMBL2074360, “Sequence analysis and functional characterization of the 5'-flanking region of the rat multidrug resistance protein 2 (mrp2) gene” (Biochem Biophys Res Commun, 1998)

Experiments:
[1] = biological target: T1, ATP-binding cassette sub-family C member 2 (Rattus norvegicus, UniProt Q63120); experiment: TP_TRANSPORTER: Northern blot from H4IIE rat hepatoma cells; format: functional, cell-based
[2] = biological target: T1, ATP-binding cassette sub-family C member 2; experiment: TP_TRANSPORTER: Western blot, H4IIE rat hepatoma cells; format: functional, cell-based

T1 sequence (Q63120 whole entry): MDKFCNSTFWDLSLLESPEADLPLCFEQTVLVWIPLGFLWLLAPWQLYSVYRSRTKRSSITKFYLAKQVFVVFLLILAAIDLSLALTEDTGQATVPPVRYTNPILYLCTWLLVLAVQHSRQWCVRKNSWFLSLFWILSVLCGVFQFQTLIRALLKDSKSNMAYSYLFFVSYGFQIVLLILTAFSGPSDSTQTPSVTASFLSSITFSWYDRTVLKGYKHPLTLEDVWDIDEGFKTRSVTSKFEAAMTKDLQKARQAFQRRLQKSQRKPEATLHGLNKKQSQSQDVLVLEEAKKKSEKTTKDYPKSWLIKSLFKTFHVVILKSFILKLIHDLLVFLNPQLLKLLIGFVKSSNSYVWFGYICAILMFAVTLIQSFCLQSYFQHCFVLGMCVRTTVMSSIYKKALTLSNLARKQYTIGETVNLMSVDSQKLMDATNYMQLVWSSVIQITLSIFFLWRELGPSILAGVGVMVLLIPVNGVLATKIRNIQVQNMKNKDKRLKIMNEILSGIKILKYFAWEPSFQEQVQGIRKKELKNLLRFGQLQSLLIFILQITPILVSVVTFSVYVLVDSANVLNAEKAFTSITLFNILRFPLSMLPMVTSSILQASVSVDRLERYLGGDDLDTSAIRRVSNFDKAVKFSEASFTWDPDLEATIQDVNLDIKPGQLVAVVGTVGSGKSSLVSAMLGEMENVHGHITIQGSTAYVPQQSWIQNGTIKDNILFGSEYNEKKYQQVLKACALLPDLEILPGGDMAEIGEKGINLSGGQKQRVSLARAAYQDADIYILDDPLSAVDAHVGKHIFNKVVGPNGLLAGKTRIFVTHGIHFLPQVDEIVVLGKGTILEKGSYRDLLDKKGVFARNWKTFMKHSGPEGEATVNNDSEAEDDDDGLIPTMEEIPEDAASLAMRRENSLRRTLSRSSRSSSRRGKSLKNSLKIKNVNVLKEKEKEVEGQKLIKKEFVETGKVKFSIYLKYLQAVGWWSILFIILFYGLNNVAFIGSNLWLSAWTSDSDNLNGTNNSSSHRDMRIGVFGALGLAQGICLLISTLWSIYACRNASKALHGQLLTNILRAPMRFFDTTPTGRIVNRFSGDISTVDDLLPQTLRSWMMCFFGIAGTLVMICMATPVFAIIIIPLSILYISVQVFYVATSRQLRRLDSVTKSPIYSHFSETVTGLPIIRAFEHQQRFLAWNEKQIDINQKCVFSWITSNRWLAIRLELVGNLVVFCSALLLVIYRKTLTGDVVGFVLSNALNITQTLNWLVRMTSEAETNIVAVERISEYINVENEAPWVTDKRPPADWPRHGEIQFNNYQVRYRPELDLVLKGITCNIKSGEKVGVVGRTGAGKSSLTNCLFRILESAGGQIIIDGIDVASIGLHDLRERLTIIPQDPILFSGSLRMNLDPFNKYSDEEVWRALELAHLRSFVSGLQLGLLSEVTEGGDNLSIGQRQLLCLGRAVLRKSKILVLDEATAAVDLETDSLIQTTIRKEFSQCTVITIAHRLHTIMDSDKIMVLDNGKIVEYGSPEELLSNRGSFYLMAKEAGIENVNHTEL

SMILES	Activity [1]	Activity [2]
CCC1(c2ccccc2)C(=O)NC(=O)NC1=O [PHENOBARBITAL]	inducer [+]	inducer [+]
C#C[C@]1(O)CC[C@H]2[C@@H]3CCc4cc(O)ccc4[C@H]3CC[C@@]21C [ETHINYL ESTRADIOL]	inducer [+]	inducer [+]
